# Activity calls are given as the source filed them. No cut-off for these calls is given here.
# Columns and labels:
# A549 = assay: Cytotoxicity against human A549 cells assessed as reduction in cell viability after 48 hrs by MTT assay; assay type: functional, cell-based; settings: A549, 48 h
# [1] = Cytotoxicity against human […] cells assessed as reduction in cell viability after 48 hrs by MTT assay; assay type: functional, cell-based
# MDA-MB-231 = assay: Cytotoxicity against human MDA-MB-231 cells assessed as reduction in cell viability after 48 hrs by MTT assay; assay type: functional, cell-based; settings: MDA-MB-231, 48 h
# HeLa = assay: Cytotoxicity against human HeLa cells assessed as reduction in cell viability after 48 hrs by MTT assay; assay type: functional, cell-based
# HepG2 [2] = assay: Cytotoxicity against human HepG2 cells assessed as reduction in cell viability after 48 hrs by MTT assay; assay type: functional, cell-based; settings: HepG2, 48 h
# HaCaT = assay: Cytotoxicity against human HaCaT cells assessed as reduction in cell viability after 48 hrs by MTT assay; assay type: cell-based
# HepG2 [3] = assay: Induction of apoptosis in human HepG2 cells after 48 hrs by annexin V-FITC/propidium iodide staining-based flow cytometry analysis; assay type: functional, cell-based
# HepG2 [4] = assay: Induction of apoptosis in human HepG2 cells assessed as early apoptotic cells at 0.5 uM after 48 hrs by annexin V-FITC/propidium iodide staining-based flow cytometry analysis (reference value: 0.98%); assay type: functional
# HepG2 [5] = assay: Induction of apoptosis in human HepG2 cells assessed as late apoptotic cells at 0.5 uM after 48 hrs by annexin V-FITC/propidium iodide staining-based flow cytometry analysis (reference value: 0.26%); assay type: functional
# HepG2 [6] = assay: Induction of apoptosis in human HepG2 cells assessed as necrotic cells at 0.5 uM after 48 hrs by annexin V-FITC/propidium iodide staining-based flow cytometry analysis (reference value: 0.62%); assay type: functional
# HepG2 [7] = assay: Induction of apoptosis in human HepG2 cells assessed as viable cells at 0.5 uM after 48 hrs by annexin V-FITC/propidium iodide staining-based flow cytometry analysis (reference value: 98.14%); assay type: functional; settings: HepG2, 48 h, read-out: Activity
# HepG2 [8] = assay: Induction of apoptosis in human HepG2 cells assessed as early apoptotic cells at 1 uM after 48 hrs by annexin V-FITC/propidium iodide staining-based flow cytometry analysis (reference value: 0.98%); assay type: functional
# HepG2 [9] = assay: Induction of apoptosis in human HepG2 cells assessed as late apoptotic cells at 1 uM after 48 hrs by annexin V-FITC/propidium iodide staining-based flow cytometry analysis (reference value: 0.26%); assay type: functional
# HepG2 [10] = assay: Induction of apoptosis in human HepG2 cells assessed as necrotic cells at 1 uM after 48 hrs by annexin V-FITC/propidium iodide staining-based flow cytometry analysis (reference value: 0.62%); assay type: functional
# HepG2 [11] = assay: Induction of apoptosis in human HepG2 cells assessed as viable cells at 1 uM after 48 hrs by annexin V-FITC/propidium iodide staining-based flow cytometry analysis (reference value: 98.14%); assay type: functional; settings: HepG2, 48 h, read-out: Activity
# HepG2 [12] = assay: Induction of apoptosis in human HepG2 cells assessed as early apoptotic cells at 2.5 uM after 48 hrs by annexin V-FITC/propidium iodide staining-based flow cytometry analysis (reference value: 0.98%); assay type: functional
# HepG2 [13] = assay: Induction of apoptosis in human HepG2 cells assessed as late apoptotic cells at 2.5 uM after 48 hrs by annexin V-FITC/propidium iodide staining-based flow cytometry analysis (reference value: 0.26%); assay type: functional
# HepG2 [14] = assay: Induction of apoptosis in human HepG2 cells assessed as necrotic cells at 2.5 uM after 48 hrs by annexin V-FITC/propidium iodide staining-based flow cytometry analysis (reference value: 0.62%); assay type: functional
# HepG2 [15] = assay: Induction of apoptosis in human HepG2 cells assessed as viable cells at 2.5 uM after 48 hrs by annexin V-FITC/propidium iodide staining-based flow cytometry analysis (reference value: 98.14%); assay type: functional; settings: HepG2, 48 h, read-out: Activity
# HepG2 [16] = assay: Induction of apoptosis in human HepG2 cells assessed as cell shrinkage at 0.5 to 2.5 uM after 48 hrs by inverted phase contrast microscopic analysis; assay type: functional, cell-based
# HepG2 [17] = assay: Induction of apoptosis in human HepG2 cells assessed as […] deformation at 0.5 to 2.5 uM after 48 hrs by inverted phase contrast microscopic analysis; assay type: functional, cell-based
# HepG2 [18] = assay: Induction of apoptosis in human HepG2 cells assessed as reduction in number of viable cells at 0.5 to 2.5 uM after 48 hrs by inverted phase contrast microscopic analysis; assay type: functional, cell-based
# HepG2 [19] = assay: Induction of apoptosis in human HepG2 cells assessed as cell shrinkage after 48 hrs by acridine orange/ethidium bromide staining-based fluorescence microscopic analysis; assay type: functional
# HepG2 [20] = assay: Induction of apoptosis in human HepG2 cells assessed as membrane blebbing after 48 hrs by acridine orange/ethidium bromide staining-based fluorescence microscopic analysis; assay type: functional, cell-based
# HepG2 [21] = assay: Induction of apoptosis in human HepG2 cells assessed as chromatin condensation after 48 hrs by acridine orange/ethidium bromide staining-based fluorescence microscopic analysis; assay type: functional, cell-based
# HepG2 [22] = assay: Induction of apoptosis in human HepG2 cells assessed as apoptotic body formation after 48 hrs by acridine orange/ethidium bromide staining-based fluorescence microscopic analysis; assay type: functional, cell-based
# HepG2 [23] = assay: Induction of apoptosis in human HepG2 cells assessed as condensed nuclei at 0.5 to 2.5 uM after 48 hrs by DAPI staining-based fluorescence microscopic analysis; assay type: functional, cell-based
# HepG2 [24] = assay: Induction of apoptosis in human HepG2 cells assessed as horse-shoe shaped nuclei at 0.5 to 2.5 uM after 48 hrs by DAPI staining-based fluorescence microscopic analysis; assay type: functional, cell-based
# HepG2 [25] = assay: Induction of apoptosis in human HepG2 cells assessed as fragmented nuclei at 0.5 to 2.5 uM after 48 hrs by DAPI staining-based fluorescence microscopic analysis; assay type: functional, cell-based
# HepG2 [26] = assay: Cell cycle arrest in human HepG2 cells assessed as accumulation at sub-G1 phase at 0.5 uM after 24 hrs by propidium iodide staining based flow cytometric analysis (reference value: 1.73%); assay type: functional
# HepG2 [27] = assay: Cell cycle arrest in human HepG2 cells assessed as accumulation at G0/G1 phase at 0.5 uM after 24 hrs by propidium iodide staining based flow cytometric analysis (reference value: 49.93%); assay type: functional
# HepG2 [28] = assay: Cell cycle arrest in human HepG2 cells assessed as accumulation at S phase at 0.5 uM after 24 hrs by propidium iodide staining based flow cytometric analysis (reference value: 7.57%); assay type: functional
# HepG2 [29] = assay: Cell cycle arrest in human HepG2 cells assessed as accumulation at G2/M phase at 0.5 uM after 24 hrs by propidium iodide staining based flow cytometric analysis (reference value: 28.79%); assay type: functional
# HepG2 [30] = assay: Cell cycle arrest in human HepG2 cells assessed as accumulation at sub-G1 phase at 1 uM after 24 hrs by propidium iodide staining based flow cytometric analysis (reference value: 1.73%); assay type: functional
# HepG2 [31] = assay: Cell cycle arrest in human HepG2 cells assessed as accumulation at G0/G1 phase at 1 uM after 24 hrs by propidium iodide staining based flow cytometric analysis (reference value: 49.93%); assay type: functional
# HepG2 [32] = assay: Cell cycle arrest in human HepG2 cells assessed as accumulation at S phase at 1 uM after 24 hrs by propidium iodide staining based flow cytometric analysis (reference value: 7.57%); assay type: functional
# HepG2 [33] = assay: Cell cycle arrest in human HepG2 cells assessed as accumulation at G2/M phase at 1 uM after 24 hrs by propidium iodide staining based flow cytometric analysis (reference value: 28.79%); assay type: functional
# HepG2 [34] = assay: Cell cycle arrest in human HepG2 cells assessed as accumulation at sub-G1 phase at 2.5 uM after 24 hrs by propidium iodide staining based flow cytometric analysis (reference value: 1.73%); assay type: functional
# HepG2 [35] = assay: Cell cycle arrest in human HepG2 cells assessed as accumulation at G0/G1 phase at 2.5 uM after 24 hrs by propidium iodide staining based flow cytometric analysis (reference value: 49.93%); assay type: functional
# HepG2 [36] = assay: Cell cycle arrest in human HepG2 cells assessed as accumulation at S phase at 2.5 uM after 24 hrs by propidium iodide staining based flow cytometric analysis (reference value: 7.57%); assay type: functional
# HepG2 [37] = assay: Cell cycle arrest in human HepG2 cells assessed as accumulation at G2/M phase at 2.5 uM after 24 hrs by propidium iodide staining based flow cytometric analysis (reference value: 28.79%); assay type: functional
# HepG2 [38] = assay: Induction of ROS accumulation in human HepG2 cells after 48 hrs by DCF-DA staining based fluorescence microscopic analysis; assay type: functional, cell-based
# HepG2 [39] = assay: Anticlonogenic activity against human HepG2 cells incubated for 24 hrs followed by fresh media replacement and measured after 12 days by crystal violet staining based assay; assay type: functional, cell-based
# HepG2 [40] = assay: Induction of apoptosis in human HepG2 cells assessed as mitochondrial polarized cells level at 0.5 uM after 48 hrs by JC-1 staining based flow cytometric method (reference value: 93.02%); assay type: functional
# HepG2 [41] = assay: Induction of apoptosis in human HepG2 cells assessed as mitochondrial depolarized cells level at 0.5 uM after 48 hrs by JC-1 staining based flow cytometric method (reference value: […]); assay type: functional
# HepG2 [42] = assay: Induction of apoptosis in human HepG2 cells assessed as mitochondrial polarized cells level at 1 uM after 48 hrs by JC-1 staining based flow cytometric method (reference value: 93.02%); assay type: functional
# HepG2 [43] = assay: Induction of apoptosis in human HepG2 cells assessed as mitochondrial depolarized cells level at 1 uM after 48 hrs by JC-1 staining based flow cytometric method (reference value: […]); assay type: functional
# HepG2 [44] = assay: Induction of apoptosis in human HepG2 cells assessed as mitochondrial polarized cells level at 2.5 uM after 48 hrs by JC-1 staining based flow cytometric method (reference value: 93.02%); assay type: functional
# HepG2 [45] = assay: Induction of apoptosis in human HepG2 cells assessed as mitochondrial depolarized cells level at 2.5 uM after 48 hrs by JC-1 staining based flow cytometric method (reference value: […]); assay type: functional
# HepG2 [46] = assay: Induction of apoptosis in human HepG2 cells assessed as increase in loss of mitochondrial membrane potential after 48 hrs by JC-1 staining based flow cytometric method; assay type: functional, cell-based
compound,measurement,setting,value
CC(=O)c1c(O)ccc2oc(-c3ccccc3C)nc12,IC50,A549,20.1 µM
same,IC50,[1],17.5 µM
same,IC50,MDA-MB-231,30.1 µM
same,IC50,HeLa,19.2 µM
same,IC50,HepG2 [2],11.7 µM
same,IC50,HaCaT,8.94 µM
O=Cc1c(O)ccc2oc(-c3cccc(Cl)c3)nc12,IC50,A549,1.87 µM
same,IC50,[1],0.98 µM
same,IC50,MDA-MB-231,1.33 µM
same,IC50,HeLa,2.18 µM
same,IC50,HepG2 [2],0.81 µM
same,IC50,HaCaT,17.8 µM
same,Activity,HepG2 [3],Dose-dependent effect
same,Activity,HepG2 [4],12.5%
same,Activity,HepG2 [5],0.75%
same,Activity,HepG2 [6],2.42%
same,viability at 0.5 µM,HepG2 [7],83.3%
same,Activity,HepG2 [8],34.2%
same,Activity,HepG2 [9],0.55%
same,Activity,HepG2 [10],1.84%
same,viability at 1 µM,HepG2 [11],63.4%
same,Activity,HepG2 [12],56.17%
same,Activity,HepG2 [13],1.64%
same,Activity,HepG2 [14],2.01%
same,viability at 2.5 µM,HepG2 [15],40.2%
same,Activity,HepG2 [16],Active
same,Activity,HepG2 [17],Active
same,Activity,HepG2 [18],Active
same,Activity,HepG2 [19],Dose-dependent effect
same,Activity,HepG2 [20],Dose-dependent effect
same,Activity,HepG2 [21],Dose-dependent effect
same,Activity,HepG2 [22],Dose-dependent effect
same,Activity,HepG2 [23],Active
same,Activity,HepG2 [24],Active
same,Activity,HepG2 [25],Active
same,Activity,HepG2 [26],2.42%
same,Activity,HepG2 [27],59.01%
same,Activity,HepG2 [28],6.61%
same,Activity,HepG2 [29],23.05%
same,Activity,HepG2 [30],5.64%
same,Activity,HepG2 [31],50.36%
same,Activity,HepG2 [32],5.53%
same,Activity,HepG2 [33],27.15%
same,Activity,HepG2 [34],13.2%
same,Activity,HepG2 [35],45.52%
same,Activity,HepG2 [36],8.32%
same,Activity,HepG2 [37],22.57%
same,Activity,HepG2 [38],Dose-dependent effect
same,Activity,HepG2 [39],Dose-dependent effect
same,Activity,HepG2 [40],85.46%
same,Activity,HepG2 [41],14.91%
same,Activity,HepG2 [42],74.54%
same,Activity,HepG2 [43],25.87%
same,Activity,HepG2 [44],29.19%
same,Activity,HepG2 [45],71.49%
same,Activity,HepG2 [46],Dose-dependent effect
O=Cc1c(O)ccc2oc(-c3ccccc3[N+](=O)[O-])nc12,IC50,A549,7.03 µM
same,IC50,[1],18.4 µM
same,IC50,MDA-MB-231,9.18 µM
same,IC50,HeLa,14.5 µM
same,IC50,HepG2 [2],17.4 µM
same,IC50,HaCaT,20 µM
Cc1ccccc1-c1nc2c(C=O)c(O)ccc2o1,IC50,A549,2.21 µM
same,IC50,[1],9.73 µM
same,IC50,MDA-MB-231,5.36 µM
same,IC50,HeLa,15.4 µM
same,IC50,HepG2 [2],4.74 µM
same,IC50,HaCaT,12.2 µM
COc1cc(OC)cc(-c2nc3c(C=O)c(O)ccc3o2)c1,IC50,A549,30.3 µM
same,IC50,[1],30.5 µM
same,IC50,MDA-MB-231,34.1 µM
same,IC50,HeLa,25.3 µM
same,IC50,HepG2 [2],21.4 µM
same,IC50,HaCaT,17.6 µM
O=Cc1c(O)ccc2oc(-c3cccc4ccccc34)nc12,IC50,A549,28.4 µM
same,IC50,[1],21.2 µM
same,IC50,MDA-MB-231,31.2 µM
same,IC50,HeLa,30.1 µM
same,IC50,HepG2 [2],27.7 µM
same,IC50,HaCaT,10.7 µM

# — ChEMBL document CHEMBL4325881, “Facile synthesis of 2-aryl 5-hydroxy benzo[d]oxazoles and their in vitro anti-proliferative effects on various cancer cell lines” (Bioorg Med Chem Lett, 2018)
